Assay results published in patent US9713702B2, “Methods of electric field induced delivery of compounds, compositions used in delivery, and systems of delivery” (The Board of Trustee of the Leland Stanford Junior …, priority 2011, dated 2017).

Experiments:
[1] = Release study in solution: electric field triggered release from the conductive hydrogel on a platinum electrode in PBS; format: physicochemical
Description: The triggered release capabilities of this system were firstly investigated in solution. In phosphate buffered saline (PBS, pH 7.2), a voltage of −0.5 V was applied between two platinum electrodes separated by a distance of 1 cm. The anode was coated with 100 mg of the hydrogel containing 0.25 wt % fluorescein-encapsulated PPy nanoparticles with a thickness around 0.1 cm. The resistivity of the swelled hydrogel and the PBS buffer was measured to be 5400 Ω·cm and 64 Ω·cm, respectively. Then, the electric field across the hydrogel was calculated to be approximately −4.5 V/cm. The electrical stimulus was applied for 10 seconds, which was repeated every five minutes, followed by measurements of the concentration of free fluorescein in the solution. […] For each stimulus, ˜20 ng of fluorescein was released. The voltage between the two electrodes was then set at −1.5 V (corresponding to an electric field across the hydrogel of −13.6 V/cm). […] The higher amount observed during the first stimulus may result from higher drug loading within the nanoparticles. Our interest in the practicability of this triggered release led us to perform a long-term release study over seven days. With the voltage between the two electrodes at −1.0 V (corresponding to an electric field across the hydrogel of −9.0 V/cm), the pulsed electric stimulus was applied to the conductive hydrogels for 20 s, once every 24 hr, followed by concentration measurements of free fluorescein in solution. […] In the case of daunorubicin, an electric field across the hydrogel of 4.5 V/cm (the set voltage was 0.5 V) was applied for 10 seconds every 5 minutes.
By applying voltage until no obvious drug release could be detected, the loading percentage of fluorescein and daunorubicin in PPy nanoparticles was calculated to be around 3.6 wt % and 3.2 wt %. […] Only with an electric stimulus can drugs be released on command. This represents an important advantage of our delivery system over conventional sustained release of drugs from hydrogel.
The platinum anode was firstly coated with the PLGA-PEG-PLGA polymer solution (100 mg of polymer) containing 0.25 wt % fluorescein (or daunorubicin)-encapsulated PPy nanoparticles, followed by solidification of the gel at room temperature. The PPy nanoparticles in the solidified gel was calculated to be 1 wt %. The coated platinum anode was then immersed in phosphate buffered saline (PBS, pH 7.2) together with a counter platinum electrode with a separated distance of 1 cm. For the release study in solution, specific voltages were applied between the two electrodes, followed by measurements of the concentration of released molecules by fluorescent assays.

[2] = Description: D-luciferin-encapsulated polypyrrole nanoparticles were synthesized the by an emulsion polymerization which could control the sizes of the nanoparticles. Luciferin served as a model molecule was incorporated in the polymer nanoparticle. […] At 4° C., 0.05 wt % of polypyrrole nanoparticles were dispersed in the water solution containing 15 wt % of poly[(D,L-lactic acid)-co-(glycolic acid)]-b-poly(ethylene oxide)-b-poly[(D,L-lactic acid)-co-(glycolic acid)] (PLGA-PEG-PLGA).
An electrical stimulus of −2.0 V/cm was applied for 10 seconds on the platinum electrodes in every 5 minutes, followed by measuring the concentration of luciferin in the solution.

COc1cccc2c1C(=O)c1c(O)c3c(c(O)c1C2=O)C[C@@](O)(C(C)=O)C[C@@H]3O[C@H]1C[C@H](N)[C@H](O)[C@H](C)O1 [daunorubicin]
loading percentage in PPy nanoparticles ([1]; calculated by applying voltage until no obvious drug release could be detected): ~3.2 wt % | amount of daunorubicin released upon each stimulus ([1]; daunorubicin-encapsulated PPy nanoparticles in hydrogel, PBS pH 7.2, 0.5 V (4.5 V/cm across hydrogel), 10 seconds every 5 minutes): ~25 ng | release from PPy nanoparticles in hydrogel without applying voltage ([1]; drug encapsulated in PPy nanoparticles in hydrogel, no electric field (control)): no obvious release | sustained release from hydrogel without encapsulation in PPy nanoparticles ([1]; drug in PLGA-PEG-PLGA hydrogel, not encapsulated in PPy nanoparticles, no voltage): most of the drugs in hydrogel were released in 4 days

O=C(O)[C@H]1CSC(c2nc3ccc(O)cc3s2)=N1 [luciferin, D-luciferin]
release of luciferin upon electric stimulus ([2]; D-luciferin-encapsulated polypyrrole nanoparticles in PLGA-PEG-PLGA hydrogel, -2.0 V/cm, 10 seconds every 5 minutes): released by applying the electric stimulus | release of luciferin without applying voltage ([2]; D-luciferin-encapsulated polypyrrole nanoparticles in hydrogel, control without voltage): no release
